Data set [1] deals with Cytochrome P450 3A4 (Homo sapiens, UniProt P08684). The data set can be described thus: Inhibition of human CYP3A4 in human hepatocytes. Format: ADME, cell-based, Hepatocyte.
The nature of data set [2]: Selectivity index, ratio of IC50 for inhibition of recombinant PDE4B2 (152 to 487 residues) (unknown origin) expressed in Escherichia coli BL21 to IC50 for inhibition of recombinant PDE4D2 (86 to 413 residues) (unknown origin) expressed in Escherichia coli BL21.
The test system of data set [3] is Mus musculus. The data set can be described thus: Anti-inflammatory bowel disease activity in DSS-induced inflammatory bowel disease C57BL/6 mouse model assessed as increase in colon length at 5 mg/kg, iv BID and measured upto 8 days. The format is functional, organism-based. As to conditions: time <= 8.0 day.
Data set [4] is described as follows: Clearance in Sprague-Dawley rat at 2.5 mg/kg, iv. Format: ADME, organism-based. As to conditions: in vivo.
The test system of data set [5] is Mus musculus. Kind of data set: Anti-inflammatory bowel disease activity in DSS-induced inflammatory bowel disease C57BL/6 mouse model assessed as decrease in diarrhoea by measuring disease activity index score at 5 mg/kg, iv BID and measured upto 8 days. The note with it: time <= 8.0 day. The format is functional, organism-based.
The test system of data set [6] is Mus musculus. Kind of data set: Anti-inflammatory bowel disease activity in DSS-induced inflammatory bowel disease C57BL/6 mouse model assessed as decrease in IL-6 mRNA expression level in colon at 5 mg/kg, iv BID and measured after 8 days by real-time PCR analysis. Format: functional, organism-based. As to conditions: time 8.0 day. On the technique in general: Real-time PCR tracks product formation cycle by cycle.

The target of data set [7] is cGMP-inhibited 3',5'-cyclic phosphodiesterase 3A (Homo sapiens, UniProt Q14432). The data set can be described thus: Inhibition of recombinant PDE3A (679 to 1087 residues) (unknown origin) expressed in Escherichia coli BL21 using [3H]cAMP as substrate incubated for 15 mins by liquid scintillation method.
cGMP-inhibited 3',5'-cyclic phosphodiesterase 3A, sequence (Q14432 whole entry, the tested form may be a part): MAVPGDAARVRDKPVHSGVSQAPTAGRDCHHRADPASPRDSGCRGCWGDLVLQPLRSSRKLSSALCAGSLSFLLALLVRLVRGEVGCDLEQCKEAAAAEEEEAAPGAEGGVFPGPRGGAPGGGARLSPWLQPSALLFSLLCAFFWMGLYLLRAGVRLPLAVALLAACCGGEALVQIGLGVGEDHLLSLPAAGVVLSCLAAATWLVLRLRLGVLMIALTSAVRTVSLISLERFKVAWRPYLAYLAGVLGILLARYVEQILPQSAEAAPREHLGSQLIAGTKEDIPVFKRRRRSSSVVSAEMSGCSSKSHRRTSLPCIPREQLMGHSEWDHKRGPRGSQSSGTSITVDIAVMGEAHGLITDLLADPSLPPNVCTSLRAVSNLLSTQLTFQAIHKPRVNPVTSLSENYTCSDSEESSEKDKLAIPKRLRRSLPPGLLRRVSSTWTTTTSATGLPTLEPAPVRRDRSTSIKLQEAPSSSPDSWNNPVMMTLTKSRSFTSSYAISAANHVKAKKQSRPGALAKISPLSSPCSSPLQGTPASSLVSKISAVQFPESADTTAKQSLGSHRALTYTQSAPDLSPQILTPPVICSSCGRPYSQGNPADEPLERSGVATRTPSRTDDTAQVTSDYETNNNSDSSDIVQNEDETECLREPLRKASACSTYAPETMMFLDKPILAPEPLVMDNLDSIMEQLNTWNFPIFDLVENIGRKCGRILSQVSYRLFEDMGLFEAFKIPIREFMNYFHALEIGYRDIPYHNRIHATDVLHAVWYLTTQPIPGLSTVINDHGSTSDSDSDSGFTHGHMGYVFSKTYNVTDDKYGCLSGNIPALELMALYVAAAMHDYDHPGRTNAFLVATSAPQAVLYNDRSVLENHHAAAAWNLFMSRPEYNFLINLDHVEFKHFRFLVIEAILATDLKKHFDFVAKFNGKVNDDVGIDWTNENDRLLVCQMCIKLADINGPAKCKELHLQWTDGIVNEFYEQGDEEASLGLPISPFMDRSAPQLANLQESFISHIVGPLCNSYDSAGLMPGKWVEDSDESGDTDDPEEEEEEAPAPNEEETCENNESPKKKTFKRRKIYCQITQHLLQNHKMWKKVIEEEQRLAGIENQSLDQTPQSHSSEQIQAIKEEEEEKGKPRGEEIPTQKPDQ
In data set [8] the target is cAMP and cAMP-inhibited cGMP 3',5'-cyclic phosphodiesterase 10A (Homo sapiens, UniProt Q9Y233). The data set can be described thus: Inhibition of recombinant PDE10A2 (449 to 770 residues) (unknown origin) expressed in Escherichia coli BL21 using [3H]cAMP as substrate incubated for 15 mins by liquid scintillation method.
Data set [9] is described as follows: Selectivity index, ratio of IC50 for inhibition of PDE5A1 (535 to 860 residues) (unknown origin) expressed in Escherichia coli BL21 to IC50 for inhibition of recombinant PDE4D2 (86 to 413 residues) (unknown origin) expressed in Escherichia coli BL21.
Data set [10] in a line: Volume of distribution at steady state in Sprague-Dawley rat at 2.5 mg/kg, iv. The format is ADME, organism-based. The note with it: in vivo, read-out: Vdss.
Data set [11] is described as follows: Selectivity index, ratio of IC50 for inhibition of recombinant PDE9A2 (181 to 506 residues) (unknown origin) expressed in Escherichia coli BL21 to IC50 for inhibition of recombinant PDE4D2 (86 to 413 residues) (unknown origin) expressed in Escherichia coli BL21.
The target in data set [12] is Voltage-gated inwardly rectifying potassium channel KCNH2 (Homo sapiens, UniProt Q12809). Kind of data set: Inhibition of human ERG. The format is toxicity.
The nature of data set [13]: Selectivity index, ratio of IC50 for inhibition of recombinant PDE2A (580 to 919 residues) (unknown origin) expressed in Escherichia coli BL21 to IC50 for inhibition of recombinant PDE4D2 (86 to 413 residues) (unknown origin) expressed in Escherichia coli BL21.
The target of data set [14] is T1, Cytochrome P450 2B6 (Homo sapiens, UniProt P20813).
T1 sequence (P20813 whole entry): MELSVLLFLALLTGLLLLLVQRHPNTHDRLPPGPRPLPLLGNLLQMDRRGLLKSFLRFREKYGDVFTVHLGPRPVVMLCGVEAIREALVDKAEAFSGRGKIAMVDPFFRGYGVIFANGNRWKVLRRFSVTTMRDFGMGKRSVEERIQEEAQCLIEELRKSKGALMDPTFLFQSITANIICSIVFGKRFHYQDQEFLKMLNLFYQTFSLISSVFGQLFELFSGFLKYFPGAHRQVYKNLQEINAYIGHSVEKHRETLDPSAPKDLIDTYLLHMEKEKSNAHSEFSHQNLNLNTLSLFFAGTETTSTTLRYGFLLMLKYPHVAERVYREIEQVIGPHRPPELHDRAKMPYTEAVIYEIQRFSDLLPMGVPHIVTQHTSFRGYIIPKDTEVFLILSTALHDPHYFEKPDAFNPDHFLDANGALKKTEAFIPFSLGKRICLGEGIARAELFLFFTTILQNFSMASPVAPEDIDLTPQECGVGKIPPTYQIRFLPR
Kind of data set: Inhibition of human CYP2B6 in human hepatocytes. The format is ADME, cell-based, Hepatocyte.

In data set [15] the test system is Mus musculus. Kind of data set: Anti-inflammatory bowel disease activity in DSS-induced inflammatory bowel disease C57BL/6 mouse model assessed as decrease in goblet cells in colon at 5 mg/kg, iv BID and measured after 8 days by Haematoxylin and eosin staining based microscopy. The note with it: time 8.0 day. Format: functional, organism-based.
Data set [16] has as its target 3',5'-cyclic-AMP phosphodiesterase 4B (Homo sapiens, UniProt Q07343). The data set can be described thus: Inhibition of recombinant PDE4B2 (152 to 487 residues) (unknown origin) expressed in Escherichia coli BL21 using [3H]cAMP as substrate incubated for 15 mins by liquid scintillation method.
The nature of data set [17]: Selectivity index, ratio of IC50 for inhibition of recombinant PDE8A1 (480 to 828 residues) (unknown origin) expressed in Escherichia coli BL21 to IC50 for inhibition of recombinant PDE4D2 (86 to 413 residues) (unknown origin) expressed in Escherichia coli BL21.
The target in data set [18] is High affinity cGMP-specific 3',5'-cyclic phosphodiesterase 9A (Homo sapiens, UniProt O76083). Kind of data set: Inhibition of recombinant PDE9A2 (181 to 506 residues) (unknown origin) expressed in Escherichia coli BL21 using [3H]cGMP as substrate incubated for 15 mins by liquid scintillation method.
High affinity cGMP-specific 3',5'-cyclic phosphodiesterase 9A, sequence (O76083 whole entry, the tested form may be a part): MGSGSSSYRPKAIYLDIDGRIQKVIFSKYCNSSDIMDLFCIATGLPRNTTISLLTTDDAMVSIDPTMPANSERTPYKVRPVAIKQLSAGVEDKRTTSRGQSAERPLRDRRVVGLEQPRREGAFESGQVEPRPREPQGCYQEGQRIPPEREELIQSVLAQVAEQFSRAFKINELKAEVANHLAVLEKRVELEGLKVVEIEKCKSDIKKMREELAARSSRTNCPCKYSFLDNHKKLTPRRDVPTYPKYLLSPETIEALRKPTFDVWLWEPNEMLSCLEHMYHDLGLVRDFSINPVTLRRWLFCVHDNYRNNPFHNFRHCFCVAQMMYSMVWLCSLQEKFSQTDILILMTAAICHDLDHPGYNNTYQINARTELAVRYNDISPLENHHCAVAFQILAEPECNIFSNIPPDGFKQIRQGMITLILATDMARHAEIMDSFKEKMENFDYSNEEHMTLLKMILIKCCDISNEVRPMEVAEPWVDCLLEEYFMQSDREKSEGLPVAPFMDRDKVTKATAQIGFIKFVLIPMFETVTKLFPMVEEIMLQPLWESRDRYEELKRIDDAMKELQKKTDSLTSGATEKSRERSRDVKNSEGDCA
The target in data set [19] is High affinity cAMP-specific and IBMX-insensitive 3',5'-cyclic phosphodiesterase 8A (Homo sapiens, UniProt O60658). The data set can be described thus: Inhibition of recombinant PDE8A1 (480 to 828 residues) (unknown origin) expressed in Escherichia coli BL21 using [3H]cAMP as substrate incubated for 15 mins by liquid scintillation method.
High affinity cAMP-specific and IBMX-insensitive 3',5'-cyclic phosphodiesterase 8A, sequence (O60658 whole entry, the tested form may be a part): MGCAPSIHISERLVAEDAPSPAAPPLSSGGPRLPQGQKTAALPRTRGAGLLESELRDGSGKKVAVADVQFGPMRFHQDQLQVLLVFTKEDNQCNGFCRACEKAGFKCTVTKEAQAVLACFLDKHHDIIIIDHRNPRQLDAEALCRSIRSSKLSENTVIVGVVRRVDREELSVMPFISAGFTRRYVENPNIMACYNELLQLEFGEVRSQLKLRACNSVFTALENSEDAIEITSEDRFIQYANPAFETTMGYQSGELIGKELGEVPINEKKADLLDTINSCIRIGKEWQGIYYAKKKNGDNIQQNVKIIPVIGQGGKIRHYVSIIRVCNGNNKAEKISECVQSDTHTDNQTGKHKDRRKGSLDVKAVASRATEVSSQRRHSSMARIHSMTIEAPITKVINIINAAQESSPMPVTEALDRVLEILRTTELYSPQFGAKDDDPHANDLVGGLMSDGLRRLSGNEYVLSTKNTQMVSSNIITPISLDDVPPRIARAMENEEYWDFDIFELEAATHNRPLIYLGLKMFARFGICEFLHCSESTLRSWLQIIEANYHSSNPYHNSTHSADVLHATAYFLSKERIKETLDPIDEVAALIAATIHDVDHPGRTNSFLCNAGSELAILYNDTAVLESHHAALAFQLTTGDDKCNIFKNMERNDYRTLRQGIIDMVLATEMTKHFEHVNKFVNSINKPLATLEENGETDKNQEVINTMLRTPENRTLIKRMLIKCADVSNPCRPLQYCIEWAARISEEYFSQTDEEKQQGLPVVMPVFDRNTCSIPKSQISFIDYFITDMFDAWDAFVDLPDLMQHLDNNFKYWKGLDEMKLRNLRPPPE
Data set [20] relates to Mus musculus. Kind of data set: Anti-inflammatory bowel disease activity in DSS-induced inflammatory bowel disease C57BL/6 mouse model assessed as decrease in IL-10 mRNA expression level in colon at 5 mg/kg, iv BID and measured after 8 days by real-time PCR analysis. The note with it: time 8.0 day. The format is functional, organism-based.
Data set [21] can be described thus: Acute toxicity in mouse assessed as body weight change at 0.75 g/Kg,po. As to conditions: in vivo, 750 mg/kg.
The target of data set [22] is Cytochrome P450 2D6 (Homo sapiens, UniProt P10635). Kind of data set: Inhibition of human CYP2D6 in human hepatocytes. Format: ADME, cell-based, Hepatocyte.
Cytochrome P450 2D6, sequence (P10635 whole entry): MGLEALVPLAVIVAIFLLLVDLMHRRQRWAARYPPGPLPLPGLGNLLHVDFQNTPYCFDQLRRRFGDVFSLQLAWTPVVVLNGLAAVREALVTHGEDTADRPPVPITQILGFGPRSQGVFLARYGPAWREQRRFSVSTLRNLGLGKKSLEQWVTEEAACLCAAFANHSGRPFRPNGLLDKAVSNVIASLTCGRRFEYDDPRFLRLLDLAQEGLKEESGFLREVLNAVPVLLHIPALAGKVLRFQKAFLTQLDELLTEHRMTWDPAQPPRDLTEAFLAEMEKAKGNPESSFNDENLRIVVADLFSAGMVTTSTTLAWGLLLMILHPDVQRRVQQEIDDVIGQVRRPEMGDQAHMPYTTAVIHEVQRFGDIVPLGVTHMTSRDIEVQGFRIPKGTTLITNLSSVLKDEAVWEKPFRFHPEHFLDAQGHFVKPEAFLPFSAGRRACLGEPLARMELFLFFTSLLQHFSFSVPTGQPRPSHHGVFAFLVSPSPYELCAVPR
Data set [23] in a line: Toxicity in twelve hrs fasted Beagle dog assessed as emesis at 10 mg/kg,po and measured upto 180 mins. Format: organism-based, Canis lupus familiaris. The note with it: in vivo, 3 h.

SMILES strings stand for the structures. Active and inactive are the calls of the source. The calls are words filed in the database; no cut-off is given here. Bounds are passed on as bounds.

Cytochrome P450 3A4, sequence (P08684 whole entry, the tested form may be a part): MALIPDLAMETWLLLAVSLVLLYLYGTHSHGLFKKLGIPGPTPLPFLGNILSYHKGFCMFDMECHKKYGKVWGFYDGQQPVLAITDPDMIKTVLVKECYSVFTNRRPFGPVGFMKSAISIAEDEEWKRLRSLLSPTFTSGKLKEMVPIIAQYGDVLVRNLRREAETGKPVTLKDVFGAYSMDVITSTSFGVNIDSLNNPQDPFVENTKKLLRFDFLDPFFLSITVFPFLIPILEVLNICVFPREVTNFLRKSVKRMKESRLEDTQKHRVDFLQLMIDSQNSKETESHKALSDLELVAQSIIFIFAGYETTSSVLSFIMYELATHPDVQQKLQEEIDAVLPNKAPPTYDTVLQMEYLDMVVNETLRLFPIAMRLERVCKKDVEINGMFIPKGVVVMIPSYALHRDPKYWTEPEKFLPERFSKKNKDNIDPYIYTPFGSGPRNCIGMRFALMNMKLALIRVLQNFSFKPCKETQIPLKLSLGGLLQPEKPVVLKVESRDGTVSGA
3',5'-cyclic-AMP phosphodiesterase 4B, sequence (Q07343 whole entry, the tested form may be a part): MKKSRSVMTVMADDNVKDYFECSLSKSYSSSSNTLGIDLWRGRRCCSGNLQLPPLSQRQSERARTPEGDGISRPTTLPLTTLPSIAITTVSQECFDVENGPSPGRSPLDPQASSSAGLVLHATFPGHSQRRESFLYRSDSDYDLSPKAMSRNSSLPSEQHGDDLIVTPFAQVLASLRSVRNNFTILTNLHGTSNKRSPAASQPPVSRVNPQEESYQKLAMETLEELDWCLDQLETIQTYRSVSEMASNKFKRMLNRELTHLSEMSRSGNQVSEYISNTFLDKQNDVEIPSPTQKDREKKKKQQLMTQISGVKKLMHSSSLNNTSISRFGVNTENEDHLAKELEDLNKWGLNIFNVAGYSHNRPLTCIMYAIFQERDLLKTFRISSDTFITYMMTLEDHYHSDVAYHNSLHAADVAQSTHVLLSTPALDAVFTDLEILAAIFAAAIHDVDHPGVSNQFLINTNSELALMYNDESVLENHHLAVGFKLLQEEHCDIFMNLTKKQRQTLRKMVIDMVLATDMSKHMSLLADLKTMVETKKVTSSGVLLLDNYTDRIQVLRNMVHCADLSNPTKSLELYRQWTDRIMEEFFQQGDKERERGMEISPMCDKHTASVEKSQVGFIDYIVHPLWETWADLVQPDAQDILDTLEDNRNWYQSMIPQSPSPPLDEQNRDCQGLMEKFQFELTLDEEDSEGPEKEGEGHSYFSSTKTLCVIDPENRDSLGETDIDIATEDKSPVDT

The term IC50 denotes the concentration needed to halve the response being measured. By clearance is commonly meant a measure of how efficiently the substance is removed, as volume per time. High values mean efficient removal, low ones inefficient removal. For `COc1c(OCC2CC2)cc2oc3cc4c(c(OCc5ccncc5)c3c(=O)c2c1CC=C(C)C)C=CC(C)(C)O4`, the IC50 was 6.1 µM in data set [1]; > 10 µM in data set [7]; 1.02 µM in [8]; > 40 µM in data set [12]; > 25 µM in [14]; 0.00951 µM in data set [16]. Moreover, the figures for the IC50 in data set [18], in data set [19] and in data set [22] were > 10 µM, 0.194 µM and > 25 µM, respectively. Moreover, the Ratio IC50 is 2.71 in data set [2]; 353 in data set [9]; > 2800 in [11]; > 2800 in data set [13]; 55 in data set [17]. The outcome in data set [3], in data set [5], in data set [6], in [15] and in data set [20] was Active. The clearance in [4] was 6.4 mL/min/kg. Also, the Vd in data set [10] was 0.673 L/kg. The Activity entry in data set [21] and in [23] was “Non-Toxic” throughout.

Values taken from ChEMBL document CHEMBL5338717, “Discovery of novel PDE4 inhibitors targeting the M-pocket from natural mangostanin with improved safety for the treatment of Inflammatory Bowel Diseases” (Eur J Med Chem, 2022).
